Source: US20260130395A1, “Water Dispersible Botanical Compositions” (Aquila Black Limited, priority 2021, published 2026)

Assay: Stability of cannabinoid compounds and Vitamin E components in Beverage 2 (AB Red) by LCMSMS
Assay type: physicochemical

Structure (SMILES): CCCCCc1cc(O)c2c(c1)OC(C)(CCC=C(C)C)C=C2 (centres unmarked) [CBC, cannabichromene]
- Stability of Plant-Derived Cannabinoid Compounds in AB Red (stored at 8° C., 0 days): 0.290 µg/mL
- Stability of Plant-Derived Cannabinoid Compounds in AB Red (stored at 8° C., 1 days): 0.289 µg/mL
- Stability of Plant-Derived Cannabinoid Compounds in AB Red (stored at 8° C., 2 days): 0.292 µg/mL
- Stability of Plant-Derived Cannabinoid Compounds in AB Red (stored at 8° C., 3 days): 0.285 µg/mL
- Stability of Plant-Derived Cannabinoid Compounds in AB Red (stored at 8° C., 5 days): 0.286 µg/mL
- Stability of Plant-Derived Cannabinoid Compounds in AB Red (stored at 8° C., 8 days): 0.286 µg/mL
- Stability of Plant-Derived Cannabinoid Compounds in AB Red (stored at 8° C., 9 days): 0.288 µg/mL
- Stability of Plant-Derived Cannabinoid Compounds in AB Red (stored at 8° C., 10 days): 0.288 µg/mL
- Stability of Plant-Derived Cannabinoid Compounds in AB Red (stored at 8° C., 11 days): 0.284 µg/mL
- Stability of Plant-Derived Cannabinoid Compounds in AB Red (stored at 8° C., 12 days): 0.285 µg/mL
- Stability of Plant-Derived Cannabinoid Compounds in AB Red (stored at 8° C., 15 days): 0.292 µg/mL
- Stability of Plant-Derived Cannabinoid Compounds in AB Red (stored at 8° C., 16 days): 0.283 µg/mL
- Stability of Plant-Derived Cannabinoid Compounds in AB Red (stored at 8° C., 17 days): 0.282 µg/mL
- Stability of Plant-Derived Cannabinoid Compounds in AB Red (stored at 8° C., 18 days): 0.289 µg/mL
- Stability of Plant-Derived Cannabinoid Compounds in AB Red (stored at 8° C., 19 days): 0.287 µg/mL
- Stability of Plant-Derived Cannabinoid Compounds in AB Red (stored at 8° C., 22 days): 0.287 µg/mL
- Stability of Plant-Derived Cannabinoid Compounds in AB Red (stored at 8° C., 23 days): 0.287 µg/mL
- Stability of Plant-Derived Cannabinoid Compounds in AB Red (stored at 8° C., 24 days): 0.291 µg/mL
- Stability of Plant-Derived Cannabinoid Compounds in AB Red (stored at 8° C., 25 days): 0.287 µg/mL
- Stability of Plant-Derived Cannabinoid Compounds in AB Red (stored at 8° C., 26 days): 0.287 µg/mL
- Stability of Plant-Derived Cannabinoid Compounds in AB Red (stored at 8° C., 29 days): 0.284 µg/mL
- Stability of Plant-Derived Cannabinoid Compounds in AB Red (stored at 8° C., 30 days): 0.282 µg/mL
- Stability of Plant-Derived Cannabinoid Compounds in AB Red (stored at 8° C., 60 days): 0.278 µg/mL
- Stability of Plant-Derived Cannabinoid Compounds in AB Red (stored at 8° C., 90 days): 0.287 µg/mL
- Stability of Plant-Derived Cannabinoid Compounds in AB Red (stored at 8° C., 120 days): 0.289 µg/mL
- Stability of Plant-Derived Cannabinoid Compounds in AB Red (stored at 8° C., 150 days): 0.281 µg/mL
- Stability of Plant-Derived Cannabinoid Compounds in AB Red (stored at 8° C., 180 days): 0.285 µg/mL
- Stability of Plant-Derived Cannabinoid Compounds in AB Red (stored at 8° C., 210 days): 0.282 µg/mL
- Stability of Plant-Derived Cannabinoid Compounds in AB Red (stored at 8° C., 240 days): 0.280 µg/mL
- Stability of Plant-Derived Cannabinoid Compounds in AB Red (stored at 8° C., 270 days): 0.284 µg/mL
- Stability of Plant-Derived Cannabinoid Compounds in AB Red (stored at 8° C., 300 days): 0.280 µg/mL
- Stability of Plant-Derived Cannabinoid Compounds in AB Red (stored at 8° C., 330 days): 0.278 µg/mL
- Stability of Plant-Derived Cannabinoid Compounds in AB Red (stored at 8° C., 360 days): 0.282 µg/mL
- Stability of Plant-Derived Cannabinoid Compounds in AB Red (stored at 8° C., 390 days): 0.282 µg/mL
- Stability of Plant-Derived Cannabinoid Compounds in AB Red (stored at 8° C., 420 days): 0.277 µg/mL
- Stability of Plant-Derived Cannabinoid Compounds in AB Red (stored at 8° C., 450 days): 0.282 µg/mL
- Stability of Plant-Derived Cannabinoid Compounds in AB Red (stored at 8° C., 480 days): 0.274 µg/mL
- Stability of Plant-Derived Cannabinoid Compounds in AB Red (stored at 8° C., 510 days): 0.267 µg/mL
- Stability of Plant-Derived Cannabinoid Compounds in AB Red (stored at 8° C., 540 days): 0.271 µg/mL
- Stability of Plant-Derived Cannabinoid Compounds in AB Red (stored at 8° C., 570 days): 0.266 µg/mL
- Stability of Plant-Derived Cannabinoid Compounds in AB Red (stored at 21-25° C., 0 days): 0.29 µg/mL
- Stability of Plant-Derived Cannabinoid Compounds in AB Red (stored at 21-25° C., 1 days): 0.28 µg/mL
- Stability of Plant-Derived Cannabinoid Compounds in AB Red (stored at 21-25° C., 2 days): 0.28 µg/mL
- Stability of Plant-Derived Cannabinoid Compounds in AB Red (stored at 21-25° C., 3 days): 0.29 µg/mL
- Stability of Plant-Derived Cannabinoid Compounds in AB Red (stored at 21-25° C., 5 days): 0.28 µg/mL
- Stability of Plant-Derived Cannabinoid Compounds in AB Red (stored at 21-25° C., 8 days): 0.28 µg/mL
- Stability of Plant-Derived Cannabinoid Compounds in AB Red (stored at 21-25° C., 9 days): 0.28 µg/mL
- Stability of Plant-Derived Cannabinoid Compounds in AB Red (stored at 21-25° C., 10 days): 0.29 µg/mL
- Stability of Plant-Derived Cannabinoid Compounds in AB Red (stored at 21-25° C., 11 days): 0.29 µg/mL
- Stability of Plant-Derived Cannabinoid Compounds in AB Red (stored at 21-25° C., 12 days): 0.28 µg/mL
- Stability of Plant-Derived Cannabinoid Compounds in AB Red (stored at 21-25° C., 15 days): 0.28 µg/mL
- Stability of Plant-Derived Cannabinoid Compounds in AB Red (stored at 21-25° C., 16 days): 0.28 µg/mL
- Stability of Plant-Derived Cannabinoid Compounds in AB Red (stored at 21-25° C., 17 days): 0.28 µg/mL
- Stability of Plant-Derived Cannabinoid Compounds in AB Red (stored at 21-25° C., 18 days): 0.29 µg/mL
- Stability of Plant-Derived Cannabinoid Compounds in AB Red (stored at 21-25° C., 19 days): 0.29 µg/mL
- Stability of Plant-Derived Cannabinoid Compounds in AB Red (stored at 21-25° C., 22 days): 0.29 µg/mL
- Stability of Plant-Derived Cannabinoid Compounds in AB Red (stored at 21-25° C., 23 days): 0.28 µg/mL
- Stability of Plant-Derived Cannabinoid Compounds in AB Red (stored at 21-25° C., 24 days): 0.29 µg/mL
- Stability of Plant-Derived Cannabinoid Compounds in AB Red (stored at 21-25° C., 25 days): 0.28 µg/mL
- Stability of Plant-Derived Cannabinoid Compounds in AB Red (stored at 21-25° C., 26 days): 0.28 µg/mL
- Stability of Plant-Derived Cannabinoid Compounds in AB Red (stored at 21-25° C., 29 days): 0.29 µg/mL
- Stability of Plant-Derived Cannabinoid Compounds in AB Red (stored at 21-25° C., 30 days): 0.29 µg/mL
- Stability of Plant-Derived Cannabinoid Compounds in AB Red (stored at 21-25° C., 60 days): 0.29 µg/mL
- Stability of Plant-Derived Cannabinoid Compounds in AB Red (stored at 21-25° C., 90 days): 0.28 µg/mL
- Stability of Plant-Derived Cannabinoid Compounds in AB Red (stored at 21-25° C., 120 days): 0.29 µg/mL
- Stability of Plant-Derived Cannabinoid Compounds in AB Red (stored at 21-25° C., 150 days): 0.29 µg/mL
- Stability of Plant-Derived Cannabinoid Compounds in AB Red (stored at 21-25° C., 180 days): 0.28 µg/mL
- Stability of Plant-Derived Cannabinoid Compounds in AB Red (stored at 21-25° C., 210 days): 0.29 µg/mL
- Stability of Plant-Derived Cannabinoid Compounds in AB Red (stored at 21-25° C., 240 days): 0.28 µg/mL
- Stability of Plant-Derived Cannabinoid Compounds in AB Red (stored at 21-25° C., 270 days): 0.29 µg/mL
- Stability of Plant-Derived Cannabinoid Compounds in AB Red (stored at 21-25° C., 300 days): 0.29 µg/mL
- Stability of Plant-Derived Cannabinoid Compounds in AB Red (stored at 21-25° C., 330 days): 0.29 µg/mL
- Stability of Plant-Derived Cannabinoid Compounds in AB Red (stored at 21-25° C., 360 days): 0.28 µg/mL
- Stability of Plant-Derived Cannabinoid Compounds in AB Red (stored at 21-25° C., 390 days): 0.28 µg/mL
- Stability of Plant-Derived Cannabinoid Compounds in AB Red (stored at 21-25° C., 420 days): 0.28 µg/mL
- Stability of Plant-Derived Cannabinoid Compounds in AB Red (stored at 21-25° C., 450 days): 0.28 µg/mL
- Stability of Plant-Derived Cannabinoid Compounds in AB Red (stored at 21-25° C., 480 days): 0.28 µg/mL
- Stability of Plant-Derived Cannabinoid Compounds in AB Red (stored at 21-25° C., 510 days): 0.27 µg/mL
- Stability of Plant-Derived Cannabinoid Compounds in AB Red (stored at 21-25° C., 540 days): 0.28 µg/mL
- Stability of Plant-Derived Cannabinoid Compounds in AB Red (stored at 21-25° C., 570 days): 0.27 µg/mL
